Measured values published in patent publication US6610289B2, “Mutated herpes simplex virus type 1 thymidine kinases and uses thereof” (The Board of Trustees of the University of Arkansas, priority 1998, dated 2003).

Assays:
HCT-116 cells [1] = assay: DAPI-staining of apoptotic cells; type: cell-based, human; settings: 25 μM GCV, 36 or 84 hrs, FIG. 7
Method: The HCT-116 cells expressing wild-type HSV-1 TK (FIG. 7A), Asn-125TK (FIG. 7B), or Glu-125TK (FIG. 7C) were grown on chamber slides and incubated with 25 μM GCV for 36 or 84 hours. Control cultures for each cell line without GCV addition (top row) were evaluated after 84 hours. At the indicated time point, cells were fixed in methanol, stained with DAPI, and nuclei visualized by fluorescent microscopy. Each image is magnified 40×.
Parental HCT-116 cells and each HSV-1 TK expressing cell line were plated (5×10^4 cells/well) in 8-well plastic chamber slides (Lab-Tek) and treated plus or minus 25 mM GCV for 36 or 84 hrs. At either time point, cells were washed with phosphate-buffered saline followed by staining in 1 μg/ml DAPI (4′,6′-diamidine-2′-phenylindoledihydrochloride) in 100% methanol at 37° C. for 10 min. After rinsing, the stained cells were visualized with a Zeiss flourescent microscope at 40× magnification with a DAPI-specific filter.

NIH3T3 cells = assay: Metabolic labeling with [^3H]GCV, NIH3T3 cell clones; type: cell-based, murine; settings: 3T3
Method: (§1) For metabolic labeling, cells (1-2×10^6) were labeled in triplicate with 2 μCi [^3H]GCV ([…]) for 18 hours, then nucleotides were extracted from pelleted cells in 0.2 ml 70% methanol at 4° C. for 15 minutes as previously described (21, 24). An aliquot of each methanol soluble supernatant was analyzed for radioactivity by scintillation counting. The methanol insoluble pellets, representative of a crude DNA fraction, were resuspended in 0.15 ml water and also counted for radioactivity. For deoxpyrimidines, cells were grown to confluency in 60 cm^2 plates, and either 2 μCi [^3H]thymidine (2 μM final) or 2 μCi [^3H]dC (10 μM final) were added for 1 or 2 hours respectively prior to extraction in 70% methanol. Methanol-soluble extracts were concentrated by evaporation under nitrogen, and separated on PEI-cellulose thin layer chromatography plates developed in 0.8 M LiCl for GCV or 0.35 M LiCl for thymidine/dC as previously described (21).
(§2) NIH3T3 fibroblasts and the human tumor cell line HCT-116 were transfected with wild-type HSV-1TK or with one of three site specific mutants of amino acid Gln-125. From a panel of multiple HSV-1TK expressing clones, a subset of clones from each cell line expressing wild-type HSV-1 TK, the Asn-125 HSV-1 TK mutant (Asn-125TK) and the Glu-125 HSV-1 TK mutant (Glu-125TK) were selected for comparatively equivalent levels of HSV-1 TK protein expression based on Western blot determinations. In this study, these two sets of HSV-1 TK-expressing NIH 3T3 and HCT-116 cell lines were evaluated for intracellular metabolism of [^3H]GCV, [^3H]thymidine, or [^3H]dC. Cells were labeled with [^3H]GCV for 18 hours, then nucleotides were extracted in ice-cold 70% methanol as previously described (21, 24). The data in Table 3 summarize the amount of total nucleotide metabolites isolated in the methanol-soluble extracts (pmol/10^6 cells) as well as the total amount of methanol-insoluble metabolites representative of incorporation into DNA. The Asn-125TK metabolizes GCV at (or near) equal levels to the wild-type HSV-TK in both cell lines. The methanol-insoluble data, while only a crude indicator of [^3H]GCV incorporation into DNA, reflects the numbers obtained with the soluble extracts. As compared with the non-HSV-TK-expressing HCT-116 cells and consistent with data in the previous study (24), minimal [^3H]GCV metabolism was detected in the Asp-125TK cells and these cells were not further evaluated.
The methanol-soluble metabolites were further separated into their constituent phosphorylated GCV metabolites by thin layer chromatography (21). As presented in Table 4, the predominant metabolite in each HSV-TK-expressing cell line was GCVTP. In both HCT-116 and NIH3T3 cell lines, the Asn-125TK cells indicated slightly higher levels of GCVTP as compared to wild-type HSV-1 TK cell lines. […] This difference in the levels of GCVTP in the two Glu-125TK expressing cell lines could explain the lack of sensitivity to GCV killing observed for the NIH3T3 Glu-125TK cell lines.

HCT-116 cells [2] = assay: Metabolic labeling with [^3H]GCV, [^3H]thymidine, [^3H]dC, HCT-116 cell clones; type: cell-based, human; settings: for Phosphorylated metabolite GCVDP / Phosphorylated metabolite GCVMP / Phosphorylated metabolite GCVTP: 116; for Phosphorylated metabolite TMP / Phosphorylated metabolite TTP: 116, [^3H]thymidine labeled
Method: as §1
as §2, with “DNA.” for “DNA. The Asn-125TK metabolizes GCV at (or near) equal levels to the wild-type HSV-TK in both cell lines. The methanol-insoluble data, while only a crude indicator of [^3H]GCV incorporation into DNA, reflects the numbers obtained with the soluble extracts. As compared with the non-HSV-TK-expressing HCT-116 cells and consistent with data in the previous study (24), minimal [^3H]GCV metabolism was detected in the Asp-125TK cells and these cells were not further evaluated.”
The methanol-soluble metabolites were further separated into their constituent phosphorylated GCV metabolites by thin layer chromatography (21).
Cells were grown to confluency and labeled with either [^3H]thymidine or [^3H]dC for 1 or 2 hours respectively prior to methanol extraction.

Substance | Nuclear morphology of DAPI-stained nuclei after GCV (HCT-116 cells [1]) | Phosphorylated metabolite GCVDP (NIH3T3 cells) [pmol/10^6 cells] | Phosphorylated metabolite GCVMP (NIH3T3 cells) [pmol/10^6 cells] | Phosphorylated metabolite GCVTP (NIH3T3 cells) [pmol/10^6 cells] | Phosphorylated metabolite GCVDP (HCT-116 cells [2]) [pmol/10^6 cells] | Phosphorylated metabolite GCVMP (HCT-116 cells [2]) [pmol/10^6 cells] | Phosphorylated metabolite GCVTP (HCT-116 cells [2]) [pmol/10^6 cells] | Phosphorylated metabolite TMP (HCT-116 cells [2]) [pmol/10^6 cells] | Phosphorylated metabolite TTP (HCT-116 cells [2]) [pmol/10^6 cells] | Decrease in GCVTP levels (HCT-116 cells [2]; HCT-116 cells, compared to wild-type and Asn-125TK cells) [fold]
Asn-125 | progressive increases in condensed and fragmented nuclei characteristic of apoptosis | 21 | 11 | 272 | 104 | 95 | 533 | 0.2 | 0.9 | –
Gln-125 (WT): wild-type herpes simplex virus type 1 thymidine kinase with glutamine at position 125, parent enzyme [reference compound] | progressive increases in condensed and fragmented nuclei characteristic of apoptosis | 22 | 12 | 232 | 101 | 96 | 415 | 1.2 | 9.5 | –
Glu-125 | fewer swelled nuclei and little evidence of apoptotic nuclei | 0 | 0 | 1.6 | 2.5 | 3.0 | 18 | 0.2 | 0.4 | ≥ 23
